In patent US10273243B2, “4-phenylpiperidines, their preparation and use” (The Trustees of Columbia University in the City of New York, priority 2013, dated 2019):

What was measured:
[1] = cited from earlier work
RBP4 = RBP4 (Homo sapiens, UniProt P02753); details: cited from earlier work
serum RBP4 and retinol = details: in vivo; cited from earlier work
Abca4−/− mice = details: animal model of excessive bisretinoid accumulation; cited from earlier work
[2] = system: retinal pigment epithelium cells; details: many cell types, including the retinal pigment epithelium cells; cited from earlier work
RBP4-TTR interaction = details: cited from earlier work

| melting point | SMILES | also measured |
| --- | --- | --- |
| 249 to 252 °C | N#Cc1ccc2[nH]nc(C(=O)N3CCC(c4ccccc4C(F)(F)F)CC3)c2c1 [Example 36, 3-(4-(2-(Trifluoromethyl)phenyl)piperidine-1-carbonyl)-1H-indazole-5-carbonitrile] |  |
| 192 to 194 °C | NC(=O)c1cccc(C(=O)N2CCC(c3ccccc3C(F)(F)F)CC2)c1 [Example 93, 3-(4-(2-(Trifluoromethyl)phenyl)piperidine-1-carbonyl)benzamide] |  |
| 208 to 211 °C | CC(=O)N1CCc2[nH]nc(C(=O)N3CCC(c4ccccc4C(F)(F)F)CC3)c2C1 [Example 27, 1-(3-(4-(2-(Trifluoromethyl)phenyl)piperidine-1-carbonyl)-6,7-dihydro-1H-pyrazolo[4,3-c]pyridin-5(4H)-yl)ethanone] |  |
| 167 to 170 °C | O=C(c1ccn[nH]1)N1CCC(c2ccccc2C(F)(F)F)CC1 [Example 90, (1H-pyrazol-5-yl)(4-(2-(trifluoromethyl)phenyl)piperidin-1-yl)methanone] |  |
| 186 to 192 °C | CC(=O)N1Cc2[nH]nc(C(=O)N3CCC(c4ccccc4C(F)(F)F)CC3)c2C1 [Example 7, 1-(3-(4-(2-(Trifluoromethyl)phenyl)piperidine-1-carbonyl)pyrrolo[3,4-c]pyrazol-5(1H,4H,6H)-yl)ethanone] |  |
| 147 to 150 °C | Cc1nc2ccc(Cl)nn2c1C(=O)N1CCC(c2ccccc2C(F)(F)F)CC1 [Example 89, (6-Chloro-2-methylimidazol[1,2-b]pyridazin-3-yl)(4-(2-(trifluoromethyl)phenyl)piperidin-1-yl)methanone] |  |
| 240 to 243 °C | CS(=O)(=O)N1CCc2[nH]nc(C(=O)N3CCC(c4ccccc4C(F)(F)F)CC3)c2C1 [Example 28, (5-(Methylsulfonyl)-4,5,6,7-tetrahydro-1H-pyrazolo[4,3-c]pyridin-3-yl)(4-(2-(trifluoromethyl)phenyl)piperidin-1-yl)methanone] |  |
| 249 to 251 °C | O=C(c1nc2ncccc2[nH]1)N1CCC(c2ccccc2C(F)(F)F)CC1 [Example 71, (1H-Imidazo[4,5-b]pyridin-2-yl)(4-(2-(trifluoromethyl)phenyl)piperidin-1-yl)methanone] |  |
| 112 to 114 °C | CC(C)C(=O)N1CCc2[nH]nc(C(=O)N3CCC(c4ccccc4C(F)(F)F)CC3)c2C1 [Example 41, 2-Methyl-1-(3-(4-(2-(trifluoromethyl)phenyl)piperidine-1-carbonyl)-6,7-dihydro-1H-pyrazolo[4,3-c]pyridin-5(4H)-yl)propan-1-one] |  |
| 242 to 245 °C | CS(=O)(=O)N1CCc2c(C(=O)N3CCC(c4ccccc4C(F)(F)F)CC3)n[nH]c2C1 [Example 18, (6-(Methylsulfonyl)-4,5,6,7-tetrahydro-1H-pyrazolo[3,4-c]pyridin-3-yl)(4-(2-(trifluoromethyl)phenyl)piperidin-1-yl)methanone] |  |
| 107 to 109 °C | CC(C)CC(=O)N1CCc2[nH]nc(C(=O)N3CCC(c4ccccc4C(F)(F)F)CC3)c2C1 [Example 42, 3-Methyl-1-(3-(4-(2-(trifluoromethyl)phenyl)piperidine-1-carbonyl)-6,7-dihydro-1H-pyrazolo[4,3-c]pyridin-5(4H)-yl)butan-1-one] |  |
| 100 to 102 °C | CC1(C(=O)N2CCC(c3ccccc3C(F)(F)F)CC2)COC1 [Example 103, (3-Methyloxetan-3-yl)(4-(2-(trifluoromethyl)phenyl)piperidin-1-yl)methanone] |  |
| 202 to 205 °C | O=C(c1n[nH]c2ncccc12)N1CCC(c2ccccc2C(F)(F)F)CC1 [Example 30, (1H-pyrazolo[3,4-b]pyridin-3-yl)(4-(2-(trifluoromethyl)phenyl)piperidin-1-yl)methanone] |  |
| 159 to 162 °C | O=C(c1ccnnc1)N1CCC(c2ccccc2C(F)(F)F)CC1 [Example 80, Pyridazin-4-yl(4-(2-(trifluoromethyl)phenyl)piperidin-1-yl)methanone] |  |
| 178 to 180 °C | CC(C)CS(=O)(=O)N1CCc2[nH]nc(C(=O)N3CCC(c4ccccc4C(F)(F)F)CC3)c2C1 [Example 38, (5-(Isobutylsulfonyl)-4,5,6,7-tetrahydro-1H-pyrazolo[4,3-c]pyridin-3-yl)(4-(2-(trifluoromethyl)phenyl)piperidin-1-yl)methanone] |  |
| 75 to 85 °C | CN1CCCc2[nH]nc(C(=O)N3CCC(c4ccccc4C(F)(F)F)CC3)c2C1 [Example 10, (5-Methyl-1,4,5,6,7,8-hexahydropyrazolo[4,3-c]azepin-3-yl)(4-(2-(trifluoromethyl)phenyl)piperidin-1-yl)methanone] |  |
| 200 to 203 °C | CC(C)C(=O)N1CCc2c(C(=O)N3CCC(c4ccccc4C(F)(F)F)CC3)n[nH]c2C1 [Example 52, 2-Methyl-1-(3-(4-(2-(trifluoromethyl)phenyl)piperidine-1-carbonyl)-4,5-dihydro-1H-pyrazolo[3,4-c]pyridin-6(7H)-yl)propan-1-one] |  |
| 44 to 46 °C | Cn1nc(C(=O)N2CCC(c3ccccc3C(F)(F)F)CC2)c2c1CCOC2 [Example 1, (1-Methyl-1,4,6,7-tetrahydropyrano[4,3-c]pyrazol-3-yl)(4-(2-(trifluoromethyl)phenyl)piperidin-1-yl)methanone] |  |
| 188 to 190 °C | NC(=O)c1ccc(C(=O)N2CCC(c3ccccc3C(F)(F)F)CC2)cc1 [Example 92, 4-(4-(2-(Trifluoromethyl)phenyl)piperidine-1-carbonyl)benzamide] |  |
|  | CC1=C(/C=C/C(C)=C/C=C/C(C)=C/C(=O)Nc2ccc(O)cc2)C(C)(C)CCC1 [fenretinide, N-(4-hydroxy-phenyl)retinamide] | formation of hemangiosarcomas ([1]; mice): stimulate formation of hemangiosarcomas; selectivity and toxicity ([1]; mouse, in vivo): non-selective and toxic; teratogenicity ([1]; mouse, in vivo): teratogenic; binding to RBP4 (RBP4): bind to RBP4; displacement of all-trans retinol from RBP4 (RBP4): displace all-trans retinol from RBP4; ocular all-trans retinol uptake (serum RBP4 and retinol): inhibit ocular all-trans retinol uptake; serum RBP4 and retinol (serum RBP4 and retinol): reduce serum RBP4 and retinol; visual cycle (serum RBP4 and retinol): slow down the visual cycle; A2E production (Abca4−/− mice): reduced A2E production; induction of apoptosis [2]: extremely active inducer of apoptosis; disruption of RBP4-TTR interaction (RBP4-TTR interaction): disrupt the RBP4-TTR interaction |
| 161 to 163 °C | Cn1nc(C(=O)N2CCC(c3ccccc3C(F)(F)F)CC2)c2cc(F)ccc21 [Example 21, (5-Fluoro-1-methyl-1H-indazol-3-yl)(4-(2-(trifluoromethyl)phenyl)piperidin-1-yl)methanone] |  |
| 152 to 155 °C | O=C(c1ccc2nccn2n1)N1CCC(c2ccccc2C(F)(F)F)CC1 [Example 81, Imidazo[1,2-b]pyridazin-6-yl(4-(2-(trifluoromethyl)phenyl)piperidin-1-yl)methanone] |  |
| 170 to 172 °C | O=C(c1ccc(Cl)nn1)N1CCC(c2ccccc2C(F)(F)F)CC1 [Example 83, (6-Chloropyridazin-3-yl)(4-(2-(trifluoromethyl)phenyl)piperidin-1-yl)methanone] |  |
| 192 to 194 °C | COCC(=O)N1CCc2[nH]nc(C(=O)N3CCC(c4ccccc4C(F)(F)F)CC3)c2C1 [Example 48, 2-Methoxy-1-(3-(4-(2-(trifluoromethyl)phenyl)piperidine-1-carbonyl)-6,7-dihydro-1H-pyrazolo[4,3-c]pyridin-5(4H)-yl)ethanone] |  |
| 200 to 203 °C | CC(C)CC(=O)N1Cc2[nH]nc(C(=O)N3CCC(c4ccccc4C(F)(F)F)CC3)c2C1 [Example 55, 3-Methyl-1-(3-(4-(2-(trifluoromethyl)phenyl)piperidine-1-carbonyl)pyrrolo[3,4-c]pyrazol-5(1H,4H,6H)-yl)butan-1-one] |  |
